US10676446B2, “Bicyclic quinazolinone derivatives” (Hoffmann-La Roche Inc., priority 2015, dated 2020)

Molecular target: human ATX (autotaxin, ENPP2), His-tagged (Homo sapiens (Human), UniProt Q13822)
Experiment: Human ATX enzyme inhibition assay (fluorescence quenching, MR121 substrate)
Format: biochemical
Details: 30 nM ATX, 1 μM MR121 substrate, 30° C., pH 8.0
Protocol: Human ATX Enzyme Inhibition Assay
ATX inhibition was measured by a fluorescence quenching assay using a specifically labeled substrate analogue (MR121 substrate). To obtain this MR121 substrate, BOC and TBS protected 6-amino-hexanoic acid (R)-3-({2-[3-(2-{2-[2-(2-amino-ethoxy)-ethoxy]-ethoxy}-ethoxy)-propionylamino]-ethoxy}-hydroxy-phosphoryloxy)-2-hydroxy-propyl ester (Ferguson et al., Org. Lett. 2006, 8, 2023) was labeled with MR121 fluorophore [CAS RN 185308-24-1], 1-(3-carboxypropyl)-11-ethyl-1,2,3,4,8,9,10,11-octahydro-dipyrido[3,2-b:2′,3′-i]phenoxazin-13-ium) on the free amine of the ethanolamine side and then, after deprotection, subsequently with tryptophan on the side of the aminohexanoic acid.
Assay working solutions were made as follows:
Assay buffer (50 mM Tris-HCl, 140 mM NaCl, 5 mM KCl, 1 mM CaCl2, 1 mM MgCl2, 0.01% Triton-X-100, pH 8.0;
ATX solution: ATX (human His-tagged) stock solution (1.08 mg/mL in 20 mM bicine, pH 8.5, 0.15 M NaCl, 10% glycerol, 0.3% CHAPS, 0.02% NaN3), diluted to 1.4-2.5× final concentration in assay buffer;
MR121 substrate solution: MR121 substrate stock solution (800 μM MR121 substrate in DMSO), diluted to 2-5× final concentration in assay buffer.
Test compounds (10 mM stock in DMSO, 8 μL) were obtained in 384 well sample plates (Corning Costar #3655) and diluted with 8 μL DMSO. Row-wise serial dilutions were made by transferring 8 μL cpd solution to the next row up to row O. The compound and control solutions were mixed five times and 2 μL were transferred to 384 well assay plates (Corning Costar #3702). Then, 15 μL of 41.7 nM ATX solution was added (30 nM final concentration), mixed five times and then incubated for 15 minutes at 30° C. 10 μL of MR121 substrate solution was added (1 μM final concentration), mixed 30 times and then incubated for 15 minutes at 30° C.

SMILES | IC50 [nM]
COCCC(=O)N1CCC(c2cc3c(=O)n(CC(=O)N(C)Cc4ccc(C#N)c(Cl)c4)cnc3cn2)CC1 [Example 190, N-[(3-Chloro-4-cyanophenyl)methyl]-2-[6-[1-(3-methoxypropanoyl)piperidin-4-yl]-4-oxopyrido[3,4-d]pyrimidin-3-yl]-N-methylacetamide] | 1
CC(=O)N1CCN(c2ccc3ncn(CC(=O)N(C)Cc4ccc(Cl)c(C#N)c4)c(=O)c3c2)CC1 [Example 57, 2-[6-(4-Acetylpiperazin-1-yl)-4-oxoquinazolin-3-yl]-N-[(4-chloro-3-cyanophenyl)methyl]-N-methylacetamide] | 8
CN(Cc1ccc(Cl)c(Cl)c1)C(=O)Cn1cnc2ccc(C3CCN(C(=O)C(O)CO)CC3)cc2c1=O (stereo not drawn) [Example 177] | 36
CC(=O)N1CCC(c2ccc3ncn(CC(=O)N(C)Cc4ccc(Cl)c(Cl)c4)c(=O)c3c2)CC1 [Example 124] | 7
CN(Cc1ccc(Cl)c(Cl)c1)C(=O)Cn1cnc2ccc(N3CCN(C(=O)C4CC(F)(F)C4)CC3)cc2c1=O [Example 75] | 5
CC(=O)N1CCN(c2ccc3ncn(CC(=O)NCc4ccc(OC(F)(F)F)cc4)c(=O)c3c2)CC1 [Example 20] | 5
C[C@H](O)C(=O)N1CCC(c2ccc3ncn(CC(=O)N(C)Cc4ccc(Cl)c(Cl)c4)c(=O)c3c2)CC1 [Example 175] | 15
CC(=O)N1CCN(c2ccc3ncn(CC(=O)N[C@H](CC(N)=O)c4ccc(Cl)cc4)c(=O)c3c2)CC1 [Example 27] | 340
CN(Cc1ccc(Cl)c(Cl)c1)C(=O)Cn1cnc2ccc(C3CCN(C(=O)C4(O)CCC4)CC3)cc2c1=O [Example 176] | 46
CC(=O)N1CCN(c2ccc3ncn(CC(=O)NCc4ccc(S(F)(F)(F)(F)F)cc4)c(=O)c3c2)CC1 [Example 39] | 12
CC(=O)N1CCN(c2ccc3ncn(CC(=O)NCc4ccc(F)c(OC(F)(F)F)c4)c(=O)c3c2)CC1 [Example 26] | 51
CC(=O)N1CC(C(=O)N2CCN(c3ccc4ncn(CC(=O)N(C)Cc5ccc(Cl)c(Cl)c5)c(=O)c4c3)CC2)C1 [Example 81] | 73
CN(Cc1ccc(Cl)c(Cl)c1)C(=O)Cn1cnc2ccc(N3CCN(C(=O)C4(C(F)(F)F)CCC4)CC3)cc2c1=O [Example 76] | 10
CC(=O)N1CCN(c2ccc3ncn(CC(=O)N(C)Cc4ccc(C#N)c(Cl)c4)c(=O)c3c2)CC1 [Example 56, 2-[6-(4-Acetylpiperazin-1-yl)-4-oxoquinazolin-3-yl]-N-[(3-chloro-4-cyanophenyl)methyl]-N-methylacetamide] | 8
CC(=O)N1CCN(c2ccc3ncn(CC(=O)NCc4ccc(Cl)c(C(F)(F)F)c4)c(=O)c3c2)CC1 [Example 34] | 24
CN(Cc1ccc(C#N)c(Cl)c1)C(=O)Cn1cnc2ccc(C3CCN(C(=O)C4CCO4)CC3)cc2c1=O (stereo not drawn) [Example 141] | 2
COC(C)C(=O)N1CCC(c2ccc3ncn(CC(=O)N(C)Cc4ccc(Cl)c(Cl)c4)c(=O)c3c2)CC1 (stereo not drawn) [Example 173] | 8
COCC(=O)N1CCN(c2ccc3ncn(CC(=O)NCc4ccc(Cl)c(Cl)c4)c(=O)c3c2)CC1 [Example 61] | 16
NS(=O)(=O)CC(=O)N1CCN(c2ccc3ncn(CC(=O)NCc4ccc(Cl)c(Cl)c4)c(=O)c3c2)CC1 [Example 71] | 26
CC(=O)N1CCN(c2ccc3ncn(CC(=O)N4CCC[C@@H]4c4ccc(C)cc4)c(=O)c3c2)CC1 [Example 48] | 1580
CC(=O)N1CCN(c2ccc3ncn(CC(=O)N(C)Cc4ccc(C#N)c(F)c4)c(=O)c3c2)CC1 [Example 45] | 38

SMILES | IC50 [nM]
CO[C@@H](C)C(=O)N1CCC(c2ccc3ncn(CC(=O)N(C)Cc4ccc(Cl)c(Cl)c4)c(=O)c3c2)CC1 [Example 168] | 27
CO[C@@H](C)C(=O)N1CCC(c2ccc3ncn(CC(=O)N(C)Cc4ccc(C#N)c(Cl)c4)c(=O)c3c2)CC1 [Example 159] | 1
O=C(Cn1cnc2ccc(N3CCN(S(=O)(=O)C4CCCC4)CC3)cc2c1=O)NCc1ccc(Cl)c(Cl)c1 [Example 89] | 20
Cc1noc(C)c1NC(=O)N1CCN(c2ccc3ncn(CC(=O)NCc4ccc(Cl)c(Cl)c4)c(=O)c3c2)CC1 [Example 86] | 133
CNC(=O)CC(NC(=O)Cn1cnc2ccc(N3CCN(C(C)=O)CC3)cc2c1=O)c1ccc(C(F)(F)F)cc1 (stereo not drawn) [Example 4] | 170
CC(=O)N1CCCN(c2ccc3ncn(CC(=O)N(C)Cc4ccc(C#N)c(Cl)c4)c(=O)c3c2)CC1 [Example 120] | 9
COC(C)C(=O)N1CCC(c2ccc3ncn(CC(=O)N(C)Cc4ccc(C#N)c(Cl)c4)c(=O)c3c2)CC1 (stereo not drawn) [Example 133] | 1
CC(=O)N1CCC(c2ccc3ncn(CC(=O)NCc4ccc(F)c(C(F)(F)F)c4)c(=O)c3c2)CC1 [Example 162] | 44
CC(=O)N1CCN(c2ccc3ncn(CC(=O)NCCc4ccc(Cl)c(Cl)c4)c(=O)c3c2)CC1 [Example 49] | 179
CC(=O)N1CCN(c2ccc3ncn(CC(=O)NCc4cc(Cl)c(Cl)cn4)c(=O)c3c2)CC1 [Example 41] | 21
NC1(C(=O)N2CCN(c3ccc4ncn(CC(=O)NCc5ccc(Cl)c(Cl)c5)c(=O)c4c3)CC2)COC1 [Example 70, 2-[6-[4-(3-Aminooxetane-3-carbonyl)piperazin-1-yl]-4-oxoquinazolin-3-yl]-N-[(3,4-dichlorophenyl)methyl]acetamide] | 318
CN(Cc1ccc(C#N)c(Cl)c1)C(=O)Cn1cnc2ccc(C3CCN(C(=O)C4CC4)CC3)cc2c1=O [Example 136] | 1
CO[C@H](C)C(=O)N1CCC(c2ccc3ncn(CC(=O)N(C)Cc4ccc(Cl)c(Cl)c4)c(=O)c3c2)CC1 [Example 167] | 4
CN(Cc1ccc(Cl)c(C#N)c1)C(=O)Cn1cnc2ccc(N3CCCN(CC4CCOC4)CC3)cc2c1=O (stereo not drawn) [Example 130, N-[(4-Chloro-3-cyanophenyl)methyl]-N-methyl-2-[4-oxo-6-[4-(oxolan-3-ylmethyl)-1,4-diazepan-1-yl]quinazolin-3-yl]acetamide] | 111
CC(C)NC(=O)N1CCN(c2ccc3ncn(CC(=O)NCc4ccc(Cl)c(Cl)c4)c(=O)c3c2)CC1 [Example 82, 4-[3-[2-[(3,4-Dichlorophenyl)methylamino]-2-oxoethyl]-4-oxoquinazolin-6-yl]-N-propan-2-ylpiperazine-1-carboxamide] | 43
C[C@@H](O)C(=O)N1CCC(c2ccc3ncn(CC(=O)N(C)Cc4ccc(Cl)c(Cl)c4)c(=O)c3c2)CC1 [Example 174] | 2
CN(Cc1ccc(Cl)c(Cl)c1)C(=O)Cn1cnc2ccc(N3CCN(S(=O)(=O)CC4CCC4)CC3)cc2c1=O [Example 92] | 7
CC(=O)N1CCC(c2ccc3ncn(CC(=O)N(C)Cc4ccc(C#N)c(Cl)c4)c(=O)c3c2)CC1 [Example 125] | 7
O=C(Cn1cnc2ccc(N3CCN(C(=O)C4CCC4)CC3)cc2c1=O)NCc1ccc(Cl)c(Cl)c1 [Example 63] | 11
CN(Cc1ccc(Cl)c(Cl)c1)C(=O)Cn1cnc2ccc(N3CCN(C(=O)C4CC(F)C4)CC3)cc2c1=O (stereo not drawn) [Example 74] | 7
CN(Cc1ccc(C#N)c(Cl)c1)C(=O)Cn1cnc2ccc(C3CCN(S(C)(=O)=O)CC3)cc2c1=O [Example 145, N-[(3-Chloro-4-cyanophenyl)methyl]-N-methyl-2-[6-(1-methylsulfonylpiperidin-4-yl)-4-oxoquinazolin-3-yl]acetamide] | 82
